Test system: Arizona hinshawii
Experiment: In vitro activity against six strains of Arizona hinshawii (minimum inhibitory concentration, broth dilution)
Format: cell-based
Details: trypticase soy broth, 24 hours at 37° C.
Protocol: Serial, two-fold dilutions of drugs are prepared in trypticase soy broth (TSB). To each tube containing 5 ml of broth is added 0.1 ml of a 10^-3 dilution of bacterial inoculum (six strains of Arizona hinshawii, originally isolated from clinical cases of Arizonosis of turkeys), adjusted prior to dilution to 44% transmission at 645 mμ. An inoculated broth, containing no drug is included as growth control for each strain tested. The minimum inhibitory conentration (MIC) is read as the highest dilution of drug showing no visble growth after 24 hours incubation at 37° C.

Measured: Minimum Inhibitory Concentration

Gentamicin
2 µg/mL: Isolate Number 1 | Isolate Number 2 | Isolate Number 3 | Isolate Number 4 | Isolate Number 5 | Isolate Number 6
